Results: PMC4104781 (Journal of controlled release : official journal of the …, 2013)

Legend:
[1] = TPT lactone-carboxylate interconversion; type: physicochemical; settings: 37 °C, aqueous buffers pH 5.92-7.67, fit of kinetic interconversion model
Spectrometric = type: physicochemical; settings: aqueous buffer solutions at various pH, pH 3.5
[2] = type: physicochemical
[3] = DSPC/DSPE-PEG2K bilayer, model fit of release profiles
[4] = DSPC/DSPE-PEG2K liposomes, 38.7 ± 0.1 °C, model fit over pH 3.35-7.67

For `CC[C@@]1(O)C(=O)OCc2c1cc1n(c2=O)Cc2cc3c(CN(C)C)c(O)ccc3nc2-1` [TPT, topotecan], the “base-catalyzed ring-closing rate constant (kc,OH)” value [1] was 7.4 ± 0.3 × 10^8 mol^−1hr^−1, the “carboxylic acid/lactone equilibrium constant (K0)” value [1] was 1.98 ± 0.07 × 10^−3 and the pKa (Spectrometric) was 6.56 ± 0.12. The “binding to the phospholipid bilayer, anionic carboxylate form (Ca)” value [2, 3] was “negligible binding”, the “binding to the phospholipid bilayer, zwitterionic lactone (Ln)” value [2, 3] was “negligible binding” and the “membrane partition coefficient, lactone species with unionized phenol (Lp)” value [2, 3] was 61.7 ± 5.9. For the same compound, the “bilayer transport of the anionic carboxylate form (Ca)” value [2, 4] was “impermeable”, the “transport rate constant, cationic lactone species (Lp)” value [2, 4] was 0.51 ± 0.07 h⁻¹ and the “transport rate constant, ring-opened carboxylate zwitterion (Cn)” value [2, 4] was 5.7 ± 0.5 h⁻¹. For the same compound, the “transport rate constant, zwitterionic lactone (Ln)” value [2, 4] was 33.9 ± 4.6 h⁻¹.
